Values quoted from earlier work in patent publication US8927021B2, “Granulating process and thus prepared granulate” (Egis Gyogyszergyar Nyilvanosan Muekoedoe Reszventarsasag, priority 2009, dated 2015).

Q: Which “solubility in digestive juice” value (digestive juice) does the source give for `O=C1[C@H](CC[C@H](O)c2ccc(F)cc2)[C@@H](c2ccc(O)cc2)N1c1ccc(F)cc1` [Ezetimibe, (3R,4S)-1-(4-Fluorophenyl)-3-[(3S)-3-(4-fluorophenyl)-3-hydroxypropyl]-4-(4-hydroxyphenyl)-2-azetidinone] here?
A: insoluble

Q: What about the “solubility in organic solvents” value (organic solvents) of the same molecule?
A: soluble

Q: What about the solubility in water (water) of the same molecule?
A: insoluble
